Results taken from patent publication US20030170229A1, “Vaccine” (SmithKline Beecham Biologicals s.a., priority 1999, published 2003).
Entries after “also recorded” stand apart in the source; their conditions may differ.

Legend:
[1] = tested on: allergic human basophils; assay: Human basophil assay, blocking assay (inhibition of allergen-triggered histamine release); assay type: cell-based; details: mouse antiserum; allergic human basophils triggered with allergen
Text: Samples of cells were lysed by 2× freeze/thawing to assay total histamine contained in the cells.
The degree of inhibition of histamine release can be calculated using the formula: […]
(histamine release from antigen stimulated cells*)
Values corrected for spontaneous release.

[2] = tested on: human IgE; assay: IgE plate bound ELISA: anti-human IgE reactivity in serum of immunised mice; assay type: in vivo, mouse
[3] = tested on: P14 peptide; assay: Anti-peptide ELISA on sera of mice immunised with P14 conjugates; assay type: in vivo, BalbC mice; details: mice vaccinated with P14 conjugate
Procedure: (§1) The anti-peptide and anti-carrier immune responses were investigated using an ELISA technique outlined below. Microtiterplates (Nunc) are coated with the specific antigen in PBS (4° overnight) with either: Streptavidin at 2 μg/ml (followed by incubation with biotinylated peptide (1 μM) for 1 hour at 37° C.), Wash 3× PBS-Tween 20 0.1%. Saturate plates with PBS-BSA 1%-Tween 20 0.1% (Sat buffer) for 1 hr at 37°. Add 1° antibody=sera in two-step dilution (in Sat buffer), incubate 1 hr 30 minutes at 37°. Wash 3×. Add 2° anti-mouse Ig (or anti-mouse isotype specific monoclonal antibody) coupled to HRP. Incubate 1 hr at 37°. Wash 5×. Reveal with TMB (BioRad) for 10 minutes at room temperature in the dark. Block reaction with 0.4N H2SO4.
The conjugates comprising the mimotope P14 (25 μg protein/dose), described in example 1, were administered into groups of 10 BalbC mice, adjuvanted with and oil in water emulsion containing QS21 and 3D-MPL described in WO 95/17210. Boosting was be performed on days 14, 24 and 72, sera was harvested 14 days after each immunisation. The immune responses anti-peptide and anti-plate bound IgE was followed using ELISA methods described in Example 1. The antiserum was then tested for anaphylactogenicity and functional activity in the inhibition of histamine release from human allergic basophils (methods as described in example 1).

[4] = tested on: Peptide P11; assay: Anti-P11 ELISA on sera of mice immunised with P11-BSA; assay type: in vivo; details: P11 coupled to BSA, 25 μg in SBAS2 IM, 8 female BALB/c mice, days 0, 14, 28
Procedure: FIG. 5, Antibody response anti-P11. Peptide P11 is coated at 1 μg/ml in carbonate buffer at +4° C. overnight. After saturation of plates, two-fold serial dilution of sera are added and incubated for 1 h at 37° C. Bound IgG is detected with a biotinylated anti-mouse Ab followed by streptavidin-POD and TMB substrate. Time points measured A. days 14 post vaccination 1, and day 14 post v2; B, Day 14 post v3.
as §1
25 μg of conjugate formulated in SBAS2 was injected IM into 8 female BALB/c mice at days 0, 14 and 28. […] Anti-peptide and anti-IgE antibodies raised by vaccination were measured by ELISA, as described in Example 1.

Row | Sequence | inhibition of histamine release by antiserum/antibodies raised by vaccination [1] | induction of anti-IgE immune response ([2]; mice vaccinated with P14 conjugate) | induction of anti-P14 immune response [3] | anti-IgE response ([2]; as expressed in mAb005 equivalents, all mice, after a third injection of P11 coupled to BSA) [µg/mL] | IgG anti-P11 response [4]
1 | APEWPGSRDKRTC (Human peptide sequence) [Peptide P14] | potent in the inhibition of histamine release; also recorded: inhibited histamine release | capable of raising high titres | capable of raising high titres | – | –
2 | CRASGKPVNHSTRKEEKQRNGLL (Human peptide sequence) [Peptide P11] | – | – | – | 28 to 244 | detected already after one injection, but increased further after the second and third injection
